The record followed here is patent US9290511B2, “Thieno-pyrimidines, useful as potassium channel inhibitors” (XENTION LIMITED, priority 2011, dated 2016).

For orientation: IC50 means the concentration that gives 50% inhibition. Lower therefore signals higher potency.

For the assay, the target named is T1, Kir3.1/3.4 (Rattus norvegicus, UniProt P48548+P63251).
T1 construct: expressed in transfected cells
T1 sequence (P63251 1-501): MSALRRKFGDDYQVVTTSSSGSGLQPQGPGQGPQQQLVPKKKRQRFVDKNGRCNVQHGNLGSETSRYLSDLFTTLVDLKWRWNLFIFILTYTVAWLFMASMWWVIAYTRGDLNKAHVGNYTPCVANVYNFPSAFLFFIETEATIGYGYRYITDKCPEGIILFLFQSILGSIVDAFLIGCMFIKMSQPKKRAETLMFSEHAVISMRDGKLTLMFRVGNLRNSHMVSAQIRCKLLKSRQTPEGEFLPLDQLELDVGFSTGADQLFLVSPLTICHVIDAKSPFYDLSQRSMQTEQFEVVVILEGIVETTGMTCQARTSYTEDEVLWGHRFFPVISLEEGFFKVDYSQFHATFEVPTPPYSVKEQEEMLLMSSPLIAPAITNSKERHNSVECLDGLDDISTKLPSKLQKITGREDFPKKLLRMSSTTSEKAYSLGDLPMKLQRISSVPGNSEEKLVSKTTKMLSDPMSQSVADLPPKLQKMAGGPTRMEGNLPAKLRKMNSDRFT
T1 sequence (P48548 1-419): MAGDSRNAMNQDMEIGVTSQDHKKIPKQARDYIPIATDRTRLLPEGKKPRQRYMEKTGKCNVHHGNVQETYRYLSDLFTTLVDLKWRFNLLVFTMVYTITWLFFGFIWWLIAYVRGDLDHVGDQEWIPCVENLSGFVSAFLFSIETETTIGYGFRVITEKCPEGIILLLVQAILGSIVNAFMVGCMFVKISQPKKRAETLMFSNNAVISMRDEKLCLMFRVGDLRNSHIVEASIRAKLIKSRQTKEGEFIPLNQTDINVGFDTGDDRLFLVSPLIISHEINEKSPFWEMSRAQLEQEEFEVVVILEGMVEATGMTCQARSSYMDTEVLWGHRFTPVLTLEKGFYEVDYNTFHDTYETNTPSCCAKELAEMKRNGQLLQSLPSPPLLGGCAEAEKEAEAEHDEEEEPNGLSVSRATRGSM
Put plainly: Kir3.1/3.4 Q-patch Method (automated patch clamp, Sophion Q-patch). Format: cell-based. The conditions noted are these: HEK293 cells stably-expressing Kir3.1/3.4; current at -120 mV; QPatch-16 or QPatch-48. The method, then: For automated patch-clamp studies using the Sophion Q-patch, accumulative concentration-responses experiments were conducted to determine compound activity against the ion channel target. Voltage-clamp experiments were performed using HEK293 cells stably-expressing Kir3.1/3.4 using either a QPatch-16 or QPatch-48 (Sophion Bioscience A/S). A voltage waveform (VHold−20 mV, step to 60 mV for 100 ms, ramp to −120 mV over 500 ms, hold at −120 mV for 100 ms before returning to VHold) was repeatedly applied to the cells under voltage-clamp at a frequency of 0.1 Hz to elicit Kir3.1/3.4 currents. Mean current at −120 mV was measured in the absence (Icontrol) and presence of drug (IDrug). Assessment of passive leak was performed by removal of external potassium (IZero). Leak current was subtracted from control and drug recordings. Current inhibition (%) was calculated as {1−[(IDrug−IZero)/(IControl−IZero)]}*100. Data were fitted with a sigmoidal function to yield an IC50 and Hill coefficient. Composition of external experimental buffer was (in mM): 40 NaCl, 100 KCl, 5 CaCl2, 1 MgCl2, 10 HEPES pH 7.4. Composition of internal solution was (in mM). 40 K-gluconate, 60 KF, 20 NaCl, 5 Mg-ATP, 0.9 GTPgS, 20 EGTA, pH 7.2. Compounds were formulated in DMSO and diluted in buffer to give a final drug concentration of between […] and a final DMSO concentration of 0.1-0.3%.
Background: Patch clamp records ionic current or voltage across a cell membrane.

`Clc1ccccc1-c1csc2nc(N3C4CCC3COC4)nc(N3C4CCC3COC4)c12` [Example 423, 8-[5-(2-chlorophenyl)-2-(3-oxa-8-azabicyclo[3.2.1]octan-8-yl)thieno[2,3-d]pyrimidin-4-yl]-3-oxa-8-azabicyclo[3.2.1]octane]: the half-maximal inhibitory concentration (IC50) was in the range of 0.5 to 3 µM.

Take `COC1CC2CCC(C1)N2c1nc(N2CCOC(C(N)=O)C2)nc2scc(-c3ccccc3Cl)c12` (stereo not drawn) [Example 408, 4-[5-(2-chlorophenyl)-4-(3-methoxy-8-azabicyclo[3.2.1]octan-8-yl)thieno[2,3-d]pyrimidin-2-yl]morpholine-2-carboxamide]: the IC50 is below 0.5 µM.

Regarding `COCC1CC2CCC(C1)N2c1nc(N2CCC(C(N)=O)C2)nc2scc(-c3ccccc3OC)c12` (stereo not drawn) [Example 376, 1-[4-[3-(methoxymethyl)-8-azabicyclo[3.2.1]octan-8-yl]-5-(2-methoxyphenyl)thieno[2,3-d]pyrimidin-2-yl]pyrrolidine-3-carboxamide], the IC50 fell in the range of 0.5 to 3 µM.

`COc1ccccc1-c1csc2nc(N3CCCC(C(N)=O)C3)nc(N3C4CCC3CC(OC)C4)c12` (stereo not drawn) [Example 390, 1-[4-(3-methoxy-8-azabicyclo[3.2.1]octan-8-yl)-5-(2-methoxyphenyl)thieno[2,3-d]pyrimidin-2-yl]piperidine-3-carboxamide]: the IC50 is 0.5 to 3 µM.

Compound `COc1ccccc1-c1csc2nc(N3C4CCC3COC4)nc(N3C4CCC3COC4)c12` [Example 402, 8-[5-(2-methoxyphenyl)-2-(3-oxa-8-azabicyclo[3.2.1]octan-8-yl)thieno[2,3-d]pyrimidin-4-yl]-3-oxa-8-azabicyclo[3.2.1]octane] came in with an IC50 of 0.5 to 3 µM.

The compound `COc1ccccc1-c1csc2nc(N3C4CCC3CC(O)C4)nc(N3C4CCC3COC4)c12` (stereo not drawn) [Example 400, 8-[5-(2-methoxyphenyl)-4-(3-oxa-8-azabicyclo[3.2.1]octan-8-yl)thieno[2,3-d]pyrimidin-2-yl]-8-azabicyclo[3.2.1]octan-3-ol] showed an IC50 of 0.5 to 3 µM.

For the compound `OC1CCN(c2nc(N3C4CCC3COC4)c3c(-c4ccccc4Cl)csc3n2)C1` (stereo not drawn) [Example 426, 1-[5-(2-chlorophenyl)-4-(3-oxa-8-azabicyclo[3.2.1]octan-8-yl)thieno[2,3-d]pyrimidin-2-yl]pyrrolidin-3-ol], the concentration for half-maximal inhibition (IC50) was below 0.5 µM.

As for `COc1ccccc1-c1csc2nc(N3C4CCC3COC4)nc(N3C4CCC3CC(OC)C4)c12` (stereo not drawn) [Example 379, 8-[4-(3-methoxy-8-azabicyclo[3.2.1]octan-8-yl)-5-(2-methoxyphenyl)thieno[2,3-d]pyrimidin-2-yl]-3-oxa-8-azabicyclo[3.2.1]octane], the IC50 was in the range of 0.5 to 3 µM.

The compound `COc1ccccc1-c1csc2nc(N3C4CCC3COC4)nc(N3CCOC(C(N)=O)C3)c12` (stereo not drawn) [Example 419, 4-[5-(2-methoxyphenyl)-2-(3-oxa-8-azabicyclo[3.2.1]octan-8-yl)thieno[2,3-d]pyrimidin-4-yl]morpholine-2-carboxamide] registered an IC50 below 0.5 µM.

The compound `NC(=O)C1CCN(c2nc(N3C4CCC3COC4)c3c(-c4ccccc4Cl)csc3n2)C1` (stereo not drawn) [Example 422, 1-[5-(2-chlorophenyl)-4-(3-oxa-8-azabicyclo[3.2.1]octan-8-yl)thieno[2,3-d]pyrimidin-2-yl]pyrrolidine-3-carboxamide] gave an IC50 of 0.5 to 3 µM.

In the case of `COc1ccccc1-c1csc2nc(N3C4CCC3CC(OC)C4)nc(N3C4CCC3CC(OC)C4)c12` (stereo not drawn) [Example 407, 2,4-bis(3-methoxy-8-azabicyclo[3.2.1]octan-8-yl)-5-(2-methoxyphenyl)thieno[2,3-d]pyrimidine], the half-maximal inhibitory concentration (IC50) lay in the range of 0.5 to 3 µM.

In turn, `COc1ccccc1-c1csc2nc(N3C4CCC3CC(OC)C4)nc(N3C4CCC3COC4)c12` (stereo not drawn) [Example 397, 8-[2-(3-methoxy-8-azabicyclo[3.2.1]octan-8-yl)-5-(2-methoxyphenyl)thieno[2,3-d]pyrimidin-4-yl]-3-oxa-8-azabicyclo[3.2.1]octane] yielded a 50% inhibitory concentration (IC50) below 0.5 µM.

Regarding `NC(=O)C1CN(c2nc(N3C4CCC3COC4)c3c(-c4ccccc4Cl)csc3n2)CCN1` (stereo not drawn) [Example 416, 4-[5-(2-chlorophenyl)-4-(3-oxa-8-azabicyclo[3.2.1]octan-8-yl)thieno[2,3-d]pyrimidin-2-yl]piperazine-2-carboxamide], the IC50 is below 0.5 µM.

For the compound `NC(=O)C1CN(c2nc(N3C4CCC3COC4)nc3scc(-c4ccccc4Cl)c23)CCN1` (stereo not drawn) [Example 417, 4-[5-(2-chlorophenyl)-2-(3-oxa-8-azabicyclo[3.2.1]octan-8-yl)thieno[2,3-d]pyrimidin-4-yl]piperazine-2-carboxamide], the IC50 lay within 0.5 to 3 µM.

Turning to `COc1ccccc1-c1csc2nc(N3CCC(C(N)=O)C3)nc(N3C4CCC3COC4)c12` (stereo not drawn) [Example 401, 1-[5-(2-methoxyphenyl)-4-(3-oxa-8-azabicyclo[3.2.1]octan-8-yl)thieno[2,3-d]pyrimidin-2-yl]pyrrolidine-3-carboxamide], the IC50 lay in the range of 0.5 to 3 µM.

In the case of `COc1ccccc1-c1csc2nc(N3CCCC(C(N)=O)C3)nc(N3C4CCC3COC4)c12` (stereo not drawn) [Example 399, 1-[5-(2-methoxyphenyl)-4-(3-oxa-8-azabicyclo[3.2.1]octan-8-yl)thieno[2,3-d]pyrimidin-2-yl]piperidine-3-carboxamide], the half-maximal inhibitory concentration (IC50) fell in the range of 0.5 to 3 µM.

`COc1ccccc1-c1csc2nc(N3CCOC(C(N)=O)C3)nc(N3C4CCC3CC(OC)C4)c12` (stereo not drawn) [Example 409, 4-[4-(3-methoxy-8-azabicyclo[3.2.1]octan-8-yl)-5-(2-methoxyphenyl)thieno[2,3-d]pyrimidin-2-yl]morpholine-2-carboxamide] gave an IC50 of 0.5 to 3 µM.

In the case of `COc1ccccc1-c1csc2nc(N3C4CCC3CC(O)C4)nc(N3CCC(C(N)=O)C3)c12` (stereo not drawn) [Example 414, 1-[2-(3-hydroxy-8-azabicyclo[3.2.1]octan-8-yl)-5-(2-methoxyphenyl)thieno[2,3-d]pyrimidin-4-yl]pyrrolidine-3-carboxamide], the IC50 lay within 0.5 to 3 µM.

Turning to `COc1ccccc1-c1csc2nc(N3C4CCC3CC(CO)C4)nc(N3CCNC(=O)C3)c12` (stereo not drawn) [Example 413, 4-[2-[3-(hydroxymethyl)-8-azabicyclo[3.2.1]octan-8-yl]-5-(2-methoxyphenyl)thieno[2,3-d]pyrimidin-4-yl]piperazin-2-one], the half-maximal inhibitory concentration (IC50) was below 0.5 µM.

In the case of `COC1CC2CCC(C1)N2c1nc(N2CCCC(C(N)=O)C2)nc2scc(-c3ccccc3Cl)c12` (stereo not drawn) [Example 373, 1-[5-(2-chlorophenyl)-4-(3-methoxy-8-azabicyclo[3.2.1]octan-8-yl)thieno[2,3-d]pyrimidin-2-yl]piperidine-3-carboxamide], the IC50 is below 0.5 µM.

Take `COc1ccccc1-c1csc2nc(N3CCOC(C(N)=O)C3)nc(N3C4CCC3COC4)c12` (stereo not drawn) [Example 418, 4-[5-(2-methoxyphenyl)-4-(3-oxa-8-azabicyclo[3.2.1]octan-8-yl)thieno[2,3-d]pyrimidin-2-yl]morpholine-2-carboxamide]: the concentration for half-maximal inhibition (IC50) fell in the range of 0.5 to 3 µM.

Turning to `COc1ccccc1-c1csc2nc(N3CCNC(C(N)=O)C3)nc(N3C4CCC3CC(OC)C4)c12` (stereo not drawn) [Example 394, 4-[4-(3-methoxy-8-azabicyclo[3.2.1]octan-8-yl)-5-(2-methoxyphenyl)thieno[2,3-d]pyrimidin-2-yl]piperazine-2-carboxamide], the IC50 was below 0.5 µM.

For the compound `COCC1CC2CCC(C1)N2c1nc(C#N)nc2scc(-c3ccccc3OC)c12` (stereo not drawn) [Example 406, 4-[3-(methoxymethyl)-8-azabicyclo[3.2.1]octan-8-yl]-5-(2-methoxyphenyl)thieno[2,3-d]pyrimidine-2-carbonitrile], the IC50 was below 0.5 µM.

The compound `COc1ccccc1-c1csc2nc(N3CCC(O)C3)nc(N3C4CCC3COC4)c12` (stereo not drawn) [Example 404, 1-[5-(2-methoxyphenyl)-4-(3-oxa-8-azabicyclo[3.2.1]octan-8-yl)thieno[2,3-d]pyrimidin-2-yl]pyrrolidin-3-ol] registered an IC50 below 0.5 µM.
